Patent US5986074A, “Metal chelates as pharmaceutical imaging agents, processes of making such and uses thereof” (Emory University, priority 1997, dated 1999)
Where two headings read alike, the source gives them in different places. Each block holds one compound with its values, some of them ahead of it.

Assays:
[1] = test system: brain; conditions: in vivo; cited from earlier work
[2] = cited from earlier work
[3] = mice, baboons, volunteers; cited from earlier work
[4] = test system: kidney; assay: Renal clearance and extraction efficiency in rats; format: in vivo, rat; conditions: technetium or rhenium chelate
Description: Clearance was determined by averaging three clearances based on three successive 10 minute urine collections. Clearance=UV/P where U is the urine concentration, V is the urine volume, and P is the plasma concentration. To measure extraction efficiency (EE), a left renal venous blood (0.5 ml) sample was obtained followed by a 3-ml carotid arterial sample. Both blood samples were centrifuged within 5 minutes to obtain a plasma sample. The extraction efficiency was calculated by measuring the difference between the arterial and venous blood sample: EE=(arterial concentration--venous concentrationlarterial concentration). Plasma protein binding (PPB) was determined by ultracentrifugation (Centrifree, Amicon, Inc., Beverly, Mass., micropartition system) of 1 ml arterial plasma. PPB=[1.0-(ultrafiltrate concentration/plasma concentration)]×100.

[5] = Biodistribution in normal rats (Table 1); format: in vivo, rat; conditions: for Bladder, percent of total activity / Carcass, percent of total activity / Intestines, percent of total activity / Kidneys, percent of total activity / Liver, percent of total activity / Stomach, percent of total activity: normal rats
Description: Tracheostomy was performed in an anesthetized rat and the left jugular vein was cannulated with one piece of PE-50 tubing for injection of the ^99m Tc radiopharmaceutical. The bladder was catheterized utilizing heat flared PE-50 tubing for urine collection. […] Each animal was sacrificed at the conclusion of the dynamic study and simultaneous static images of the isolated lungs, heart, liver, spleen, stomach, kidneys, bowel and bladder with urine were acquired as well as a static image of the rat carcass without the organs. Total counts for the injected dose were determined from the sum of the isolated organ counts and the carcass counts decay corrected to the time of organ imaging. Regions of interest were drawn around each organ to determine the percent injected dose in each organ.

[6] = Ionic forms at physiological pH; format: physicochemical
[7] = Normal volunteer studies: plasma clearance, urinary excretion, imaging; format: in vivo, human; conditions: humans; for Clearance rate (EC/OIH): relative to coinjected OIH
Description: ^99m Tc LL-EC, DD-EC and DL-EC were each evaluated in three normal male volunteers. The HPLC purified complexes and phosphate-buffered saline (pH 7.0) were passed through a SEP-PAK Plus C18 cartridge (primed with 1 ml ethanol) and a sterile Millex-GS 0.22 μm filter unit into a sterile, pyrogen-free empty vial. The final concentration was ~2.0 mCi/2.5 ml and the final pH ranged from 5.7 to 7.4. Test samples of each complex were sterile and pyrogen free. Approximately 2 mCi of each ^99m Tc complex were coinjected with 200 μCi of I-131 OIH and plasma samples were obtained at 5, 10, 15, 20, 30 45, 60 and 90 minutes post injection. The plasma clearances of 1-131 OIH and each EC complex were determined using the single injection, two-compartment model of Sapirstein et al., (1955) Am. J. Physiol. 181: 330-336. The volunteers voided at 30, 90 and 180 minutes post injection to determine the percent dose in the urine at each time period. A urine sample from the 30 minute urine collection was obtained for HPLC analysis from one of the normal volunteers and analyzed for each complex. One volunteer was imaged with each complex using a simultaneous acquisition with a 20% window centered over the 363 KeV photopeak of I-131 and a second 20% window over the 140 KeV photopeak of ^99m Tc. Data were acquired in a 128×128 matrix using a three phase dynamic acquisition: phase 1 consisted of 24 two second frames, phase 2 consisted of 16 fifteen second frames and phase 3 consisted of 40 thirty second frames. Data were acquired using a general Electric (Milwaukee, Wis.) Star-Cam computer fitted with a high energy collimator. All studies were performed with the approval of the Human Investigations Committee and a signed consent form was obtained.

[8] = cited from earlier work; remark: listed apart in the source
[9] = test system: plasma protein; conditions: cited from earlier work
[10] = test system: kidneys; conditions: in vivo; cited from earlier work
[11] = cited from earlier work; remark: listed apart in the source
[12] = Stability of thiourea chelates; format: physicochemical
[13] = mice and baboons; cited from earlier work

Compound: ^99m Tc L,L-ethylenedicysteine diethyl ester [^99m Tc LL-ECD]
- Brain perfusion [1]: good brain perfusion agent

Compound: ^99m Tc mercaptoacetyl-glycylglycyl-taurine
- Comparison with ^99m Tc MAG3 in dogs [2]: inferior to ^99m Tc MAG3 in dogs

Compound: C[C@H](NC(=O)CNC(=O)CS)C(=O)NCC(=O)O [MAGAG, mercaptoacetylglycylalanylglycine]
- Comparison with ^99m Tc MAG3 [3]: one diastereomer comparable and the other considerably inferior

Compound: thioacetamidethiourea-ethylCOOH [TATU-EtCOOH]
- Renal clearance, in words [4]: superior renal clearance in rats when compared to a corresponding metal chelate with MAG3

- Bladder, percent of total activity ([5]; 22 minutes post injection): 63.2% of total activity
- Carcass, percent of total activity ([5]; 22 minutes post injection): 25.4% of total activity
- Intestines, percent of total activity ([5]; 22 minutes post injection): 2.6% of total activity
- Kidneys, percent of total activity ([5]; 22 minutes post injection): 5.4% of total activity
- Liver, percent of total activity ([5]; 22 minutes post injection): 2.9% of total activity
- Stomach, percent of total activity ([5]; 22 minutes post injection): < 1% of total activity
- Removal/excretion by the kidneys, in words ([5]; rats, listed as 99m Tc-D,D-EC): superior to L,L-EC in rats
- Dianionic form at physiological pH [6]: 80%
- Monoanionic form at physiological pH [6]: 20%
- Clearance rate (EC/OIH) [7]: 82±8%
Compound: O=C(O)[C@@H](CS)NCCN[C@H](CS)C(=O)O [D,D-EC, D,D-ethylenedicysteine]
- Removal/excretion by the kidneys, in words ([5]; rats): more rapid renal clearance than ^99m Tc MAG3
- Renal clearance, in words [4]: significantly higher than that of its LL-isomer and than that of ^99m Tc MAG3

Compound: O=C(O)CNC(=O)c1ccccc1[131I] [OIH, ^131 I-orthohippurate]
- Clearance relative to p-aminohippuric acid (PAH) ([8]; percent of PAH clearance): 83%

- Rate of excretion in the urine [7]: had a slower rate of excretion
- Clearance rate (EC/OIH) [7]: 40±5%
Compound: D,L-ethylenedicysteine [DL-EC]

- Bladder, percent of total activity ([5]; 30 minutes post injection): 58.2% of total activity
- Carcass, percent of total activity ([5]; 30 minutes post injection): 19.8% of total activity
- Intestines, percent of total activity ([5]; 30 minutes post injection): 6.4% of total activity
- Kidneys, percent of total activity ([5]; 30 minutes post injection): 7.2% of total activity
- Liver, percent of total activity ([5]; 30 minutes post injection): 4.8% of total activity
- Stomach, percent of total activity ([5]; 30 minutes post injection): 1.9% of total activity
Compound: L-cysteinylethylenepyridine carboxamide [L-CEPIC]
- Removal/excretion by the kidneys, in words ([5]; rats): rapid and selective removal of the test compounds by the kidneys
- Uptake in other major organs ([5]; rats): only trace amounts being taken up in other major organs
- Removal/excretion by the kidneys, in words ([5]; rats, listed as 99m Tc-CEPIC): even more rapidly excreted by the kidneys than ^99m Tc MAG3
- Renal clearance, in words [4]: renal clearance efficiency similar to that of ^99m Tc MAG3

Compound: O=C(O)C(CS)NCCNC(CS)C(=O)O (stereo not drawn) [EC, ethylene dicysteine]
- Protein binding characteristics [9]: favorable protein binding characteristics

- Bladder, percent of total activity ([5]; 22 minutes post injection): 57% of total activity
- Carcass, percent of total activity ([5]; 22 minutes post injection): 14% of total activity
- Intestines, percent of total activity ([5]; 22 minutes post injection): 5% of total activity
- Kidneys, percent of total activity ([5]; 22 minutes post injection): 23% of total activity
- Liver, percent of total activity ([5]; 22 minutes post injection): 1% of total activity
- Stomach, percent of total activity ([5]; 22 minutes post injection): < 1% of total activity
Compound: O=C(O)CNC(=O)CNC(=O)CNC(=O)CS [MAG3, mercaptoacetyltriglycine]
- Plasma-protein binding, in words [9]: very high
- Extraction rate [10]: favorably high extraction rate
- Clearance compared to DTPA ([8]; in vivo): higher clearance of MAG3 compared to DTPA
- Clearance relative to OIH ([8]; percent of OIH clearance): 50-60%
- Transport into the small intestine via the hepatobiliary system ([11]; normal volunteers): a small percentage
- Transport into the small intestine via the hepatobiliary system ([11]; patients with renal failure): this percentage increases in patients with renal failure

Compound: CC(C)(S)C(=O)NCCCNC(=S)NCCC(=O)O [(Me)2 -TAPTU-EtCOOH, dimethylthioacetamidepropylthiourea-ethylCOOH]
- Stability compared with the corresponding thioacetamidethiourea derivative [12]: greater stability than the corresponding thioacetamide-thiourea derivative
- Stability compared with the corresponding thioacetamidethiourea derivative ([12]; listed as dimethyl-TAPTU-EtCOOH): appeared to be more stable than the corresponding thioacetamidethiourea derivative

- Bladder, percent of total activity ([5]; 22 minutes post injection): 45.6% of total activity
- Carcass, percent of total activity ([5]; 22 minutes post injection): 22.6% of total activity
- Intestines, percent of total activity ([5]; 22 minutes post injection): 1.8% of total activity
- Kidneys, percent of total activity ([5]; 22 minutes post injection): 24.4% of total activity
- Liver, percent of total activity ([5]; 22 minutes post injection): 4.5% of total activity
- Stomach, percent of total activity ([5]; 22 minutes post injection): < 1% of total activity
- Dianionic form at physiological pH [6]: 80%
- Monoanionic form at physiological pH [6]: 20%
- Clearance rate (EC/OIH) [7]: 70±3%
Compound: O=C([O-])[C@H](C[S-])NCCN[C@@H](CS)C(=O)[O-].[O]=[Tc+3] [L,L-EC, L,L-ethylenedicysteine]
- Comparison with ^99m Tc DD-EC [13]: superior to the enantiomer ^99m Tc DD-EC
- Pharmacokinetic properties compared with OIH and MAG3 [13]: more closely approached those of OIH than the properties of MAG3

- Renal clearance, in words ([4]; listed as TATU-pPh): cleared at a moderate rate
Compound: thioacetamidethiourea-para-phenylCOOH [TATU-pPhCOOH]
- Renal clearance, in words [4]: cleared at a moderate rate by the kidneys in rat
